Experimental findings from ChEMBL document CHEMBL1150976, “The selectivity of protein kinase inhibitors: a further update” (Biochem J, 2007) are described below.

For assay [1], the target named is Cyclin-dependent kinase 2/cyclin A (Homo sapiens, UniProt P24941). The assay can be described thus: Inhibition of CDK2-cyclinA in the presence of 20uM ATP. The format is protein-complex assay.
Assay [2] concerns the target SRSF protein kinase 1 (Homo sapiens) (UniProt Q96SB4). In words: Percentage SRPK1 activity remaining in the presence of 3uM inhibitor.
For assay [3], the target named is T1, Serine/threonine-protein kinase Chk1 (Homo sapiens) (UniProt O14757).
T1 sequence (whole entry): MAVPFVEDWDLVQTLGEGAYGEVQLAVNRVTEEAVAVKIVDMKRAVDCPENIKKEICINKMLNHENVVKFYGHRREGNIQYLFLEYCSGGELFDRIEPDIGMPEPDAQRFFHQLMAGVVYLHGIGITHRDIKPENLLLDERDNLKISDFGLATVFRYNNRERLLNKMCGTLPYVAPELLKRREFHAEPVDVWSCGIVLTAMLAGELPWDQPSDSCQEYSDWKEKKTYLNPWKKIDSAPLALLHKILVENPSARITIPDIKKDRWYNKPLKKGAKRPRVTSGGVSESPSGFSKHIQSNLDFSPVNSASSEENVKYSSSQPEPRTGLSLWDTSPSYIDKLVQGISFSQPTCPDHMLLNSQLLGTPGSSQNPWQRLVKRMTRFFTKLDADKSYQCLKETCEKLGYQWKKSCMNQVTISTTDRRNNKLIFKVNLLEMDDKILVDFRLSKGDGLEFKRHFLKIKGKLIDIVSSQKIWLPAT
The assay can be described thus: Percentage CHK1 activity remaining in the presence of 3uM inhibitor.

Assay [4] has as its target Proto-oncogene tyrosine-protein kinase Src (Gallus gallus, UniProt P00523). In words: Inhibition of Src in the presence of 50uM ATP.
Assay [5] concerns the target Serine/threonine-protein kinase Nek6 (Homo sapiens) (UniProt Q9HC98). The assay can be described thus: Percentage NEK6 activity remaining in the presence of 3uM inhibitor.
In assay [6] the target is Proto-oncogene tyrosine-protein kinase LCK (Mus musculus, UniProt P06240). The assay can be described thus: Inhibition of Lck in the presence of 50uM ATP.
In assay [7] the target is Serine/threonine-protein kinase Chk2 (Homo sapiens) (UniProt O96017). The assay can be described thus: Percentage CHK2 activity remaining in the presence of 0.01uM inhibitor.
Sequence of Serine/threonine-protein kinase Chk2 (Homo sapiens) (O96017 whole entry): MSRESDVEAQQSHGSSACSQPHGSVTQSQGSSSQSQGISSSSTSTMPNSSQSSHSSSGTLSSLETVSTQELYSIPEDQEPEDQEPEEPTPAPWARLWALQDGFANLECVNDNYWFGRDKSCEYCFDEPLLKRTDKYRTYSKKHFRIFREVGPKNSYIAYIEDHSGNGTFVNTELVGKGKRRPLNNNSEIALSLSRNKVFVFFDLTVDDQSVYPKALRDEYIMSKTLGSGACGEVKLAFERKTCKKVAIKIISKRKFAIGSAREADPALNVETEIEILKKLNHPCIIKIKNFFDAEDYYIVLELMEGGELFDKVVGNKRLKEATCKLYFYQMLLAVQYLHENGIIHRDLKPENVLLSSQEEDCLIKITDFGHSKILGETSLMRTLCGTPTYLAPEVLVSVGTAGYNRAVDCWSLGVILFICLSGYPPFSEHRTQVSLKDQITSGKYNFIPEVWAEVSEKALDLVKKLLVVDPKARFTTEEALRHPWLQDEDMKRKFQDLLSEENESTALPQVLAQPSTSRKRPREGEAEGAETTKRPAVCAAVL
Assay [8] addresses Serine/threonine-protein kinase PAK 4 (Homo sapiens, UniProt O96013). The assay can be described thus: Percentage PAK4 activity remaining in the presence of 25uM inhibitor.
Assay [9] deals with Serine/threonine-protein kinase PAK 6 (Homo sapiens) (UniProt Q9NQU5). In words: Percentage PAK6 activity remaining in the presence of 25uM inhibitor.
Sequence of Serine/threonine-protein kinase PAK 6 (Homo sapiens) (Q9NQU5 whole entry, looked up): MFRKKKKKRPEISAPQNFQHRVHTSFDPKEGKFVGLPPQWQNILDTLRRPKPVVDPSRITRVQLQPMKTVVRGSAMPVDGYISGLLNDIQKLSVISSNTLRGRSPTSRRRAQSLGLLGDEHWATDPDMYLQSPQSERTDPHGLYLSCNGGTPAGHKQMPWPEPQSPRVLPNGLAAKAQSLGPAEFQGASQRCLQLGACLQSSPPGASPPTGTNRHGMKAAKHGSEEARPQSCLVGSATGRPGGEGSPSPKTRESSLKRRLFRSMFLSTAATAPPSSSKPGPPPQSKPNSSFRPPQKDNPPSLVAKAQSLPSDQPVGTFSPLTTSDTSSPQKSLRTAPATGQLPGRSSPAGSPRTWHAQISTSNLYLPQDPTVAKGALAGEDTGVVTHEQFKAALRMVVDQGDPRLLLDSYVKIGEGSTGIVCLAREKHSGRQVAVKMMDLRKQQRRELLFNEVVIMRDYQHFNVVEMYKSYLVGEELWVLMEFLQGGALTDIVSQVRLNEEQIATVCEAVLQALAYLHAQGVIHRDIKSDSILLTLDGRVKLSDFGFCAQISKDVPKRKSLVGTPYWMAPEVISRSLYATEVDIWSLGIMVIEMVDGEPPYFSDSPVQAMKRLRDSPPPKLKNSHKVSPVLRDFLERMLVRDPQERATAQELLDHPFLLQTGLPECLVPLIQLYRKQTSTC
Assay [10] addresses T2, Dual specificity tyrosine-phosphorylation-regulated kinase 3 (Homo sapiens) (UniProt O43781).
T2 sequence (whole entry): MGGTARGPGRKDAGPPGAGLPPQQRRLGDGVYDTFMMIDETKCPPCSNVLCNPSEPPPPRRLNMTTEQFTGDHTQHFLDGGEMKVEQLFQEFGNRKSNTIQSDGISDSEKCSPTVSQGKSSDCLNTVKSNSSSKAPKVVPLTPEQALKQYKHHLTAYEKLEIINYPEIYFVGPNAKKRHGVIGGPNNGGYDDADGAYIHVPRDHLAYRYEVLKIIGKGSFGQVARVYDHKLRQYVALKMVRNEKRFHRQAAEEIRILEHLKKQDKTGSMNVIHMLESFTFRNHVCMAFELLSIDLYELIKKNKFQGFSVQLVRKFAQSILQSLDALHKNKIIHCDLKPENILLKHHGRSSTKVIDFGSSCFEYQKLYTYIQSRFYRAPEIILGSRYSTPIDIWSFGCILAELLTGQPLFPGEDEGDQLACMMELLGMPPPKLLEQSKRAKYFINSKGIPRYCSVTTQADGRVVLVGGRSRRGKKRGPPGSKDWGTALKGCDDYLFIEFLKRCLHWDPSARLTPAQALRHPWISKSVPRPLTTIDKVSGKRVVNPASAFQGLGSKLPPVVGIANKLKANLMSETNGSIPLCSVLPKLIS
The assay can be described thus: Percentage DYRK3 activity remaining in the presence of 25uM inhibitor.

The target in assay [11] is Mitogen-activated protein kinase 14 (Homo sapiens, UniProt Q16539). In words: Percentage p38alpha activity remaining in the presence of 25uM inhibitor.
Sequence of Mitogen-activated protein kinase 14 (Q16539 whole entry): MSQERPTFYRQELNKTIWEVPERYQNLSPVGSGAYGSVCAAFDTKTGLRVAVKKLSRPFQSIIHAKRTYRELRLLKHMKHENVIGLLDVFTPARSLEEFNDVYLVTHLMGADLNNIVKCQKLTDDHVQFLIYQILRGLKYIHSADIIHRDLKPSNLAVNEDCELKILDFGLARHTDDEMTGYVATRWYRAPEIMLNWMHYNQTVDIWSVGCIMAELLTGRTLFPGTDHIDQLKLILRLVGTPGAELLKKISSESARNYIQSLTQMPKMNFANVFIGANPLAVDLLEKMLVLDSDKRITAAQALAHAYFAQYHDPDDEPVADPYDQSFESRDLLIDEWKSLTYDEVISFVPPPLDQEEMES
For assay [12], the target named is MAP kinase-interacting serine/threonine-protein kinase 1 (Homo sapiens) (UniProt Q9BUB5). The assay can be described thus: Percentage MNK1 activity remaining in the presence of 25uM inhibitor.
Sequence of MAP kinase-interacting serine/threonine-protein kinase 1 (Homo sapiens) (Q9BUB5 whole entry, looked up): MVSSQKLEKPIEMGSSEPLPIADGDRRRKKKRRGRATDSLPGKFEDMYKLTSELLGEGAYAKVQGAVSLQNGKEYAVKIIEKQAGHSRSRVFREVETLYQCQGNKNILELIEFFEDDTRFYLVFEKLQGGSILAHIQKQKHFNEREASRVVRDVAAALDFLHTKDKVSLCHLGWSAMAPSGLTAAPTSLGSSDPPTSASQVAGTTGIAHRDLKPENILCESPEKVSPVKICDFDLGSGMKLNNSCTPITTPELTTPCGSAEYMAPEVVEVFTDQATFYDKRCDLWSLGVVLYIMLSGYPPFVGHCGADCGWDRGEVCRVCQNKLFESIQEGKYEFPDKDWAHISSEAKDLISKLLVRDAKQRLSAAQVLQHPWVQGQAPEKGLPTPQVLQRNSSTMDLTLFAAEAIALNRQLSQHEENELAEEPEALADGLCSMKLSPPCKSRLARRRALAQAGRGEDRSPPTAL
Assay [13] concerns the target Myosin light chain kinase, smooth muscle (Homo sapiens, UniProt Q15746). The assay can be described thus: Percentage SmMLCK activity remaining in the presence of 25uM inhibitor.
The target of assay [14] is Ribosomal protein S6 kinase alpha-5 (Homo sapiens) (UniProt O75582). In words: Percentage MSK1 activity remaining in the presence of 25uM inhibitor.
Assay [15] deals with Casein kinase II (Homo sapiens) (UniProt P67870+P68400+P19784). The assay can be described thus: Percentage CK2 activity remaining in the presence of 25uM inhibitor. The format is protein-complex assay.
Assay [16] concerns the target Dual specificity mitogen-activated protein kinase kinase 1 (Homo sapiens) (UniProt Q02750). In words: Percentage MKK1 activity remaining in the presence of 25uM inhibitor.
Assay [17] deals with Serine/threonine-protein kinase PLK1 (Homo sapiens, UniProt P53350). The assay can be described thus: Percentage PLK1 activity remaining in the presence of 25uM inhibitor.
Sequence of Serine/threonine-protein kinase PLK1 (P53350 whole entry): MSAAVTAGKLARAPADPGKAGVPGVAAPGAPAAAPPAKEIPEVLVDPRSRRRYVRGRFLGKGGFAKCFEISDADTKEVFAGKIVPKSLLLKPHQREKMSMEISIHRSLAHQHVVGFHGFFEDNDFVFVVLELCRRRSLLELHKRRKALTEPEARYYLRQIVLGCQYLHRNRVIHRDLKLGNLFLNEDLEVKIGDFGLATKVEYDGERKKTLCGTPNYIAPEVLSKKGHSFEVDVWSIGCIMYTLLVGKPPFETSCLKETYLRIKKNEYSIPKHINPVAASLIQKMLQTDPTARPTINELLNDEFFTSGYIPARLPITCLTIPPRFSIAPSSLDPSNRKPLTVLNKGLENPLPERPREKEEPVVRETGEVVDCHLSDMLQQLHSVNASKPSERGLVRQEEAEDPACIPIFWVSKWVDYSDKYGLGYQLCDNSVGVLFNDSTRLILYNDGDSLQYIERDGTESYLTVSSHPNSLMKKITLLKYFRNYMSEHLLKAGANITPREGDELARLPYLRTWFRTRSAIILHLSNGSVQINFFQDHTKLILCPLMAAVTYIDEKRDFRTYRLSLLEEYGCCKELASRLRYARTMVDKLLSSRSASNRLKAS
Assay [18] deals with Glycogen synthase kinase-3 beta (Homo sapiens, UniProt P49841). In words: Percentage GSK3-beta activity remaining in the presence of 25uM inhibitor.
Sequence of Glycogen synthase kinase-3 beta (P49841 whole entry, looked up): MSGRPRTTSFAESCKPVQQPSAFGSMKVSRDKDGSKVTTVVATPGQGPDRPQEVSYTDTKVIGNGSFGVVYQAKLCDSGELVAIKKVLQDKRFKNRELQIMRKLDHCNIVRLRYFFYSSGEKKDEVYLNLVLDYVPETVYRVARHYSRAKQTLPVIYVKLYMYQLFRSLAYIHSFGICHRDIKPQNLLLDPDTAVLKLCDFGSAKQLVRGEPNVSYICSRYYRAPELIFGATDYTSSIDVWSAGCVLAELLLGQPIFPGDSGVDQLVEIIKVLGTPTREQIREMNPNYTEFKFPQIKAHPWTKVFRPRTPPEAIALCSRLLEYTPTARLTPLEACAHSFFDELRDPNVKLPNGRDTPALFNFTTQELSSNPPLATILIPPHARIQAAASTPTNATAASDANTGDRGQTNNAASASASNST
Assay [19] deals with Serine/threonine-protein kinase PAK 5 (Homo sapiens) (UniProt Q9P286). In words: Percentage PAK5 activity remaining in the presence of 25uM inhibitor.
Sequence of Serine/threonine-protein kinase PAK 5 (Homo sapiens) (Q9P286 whole entry, looked up): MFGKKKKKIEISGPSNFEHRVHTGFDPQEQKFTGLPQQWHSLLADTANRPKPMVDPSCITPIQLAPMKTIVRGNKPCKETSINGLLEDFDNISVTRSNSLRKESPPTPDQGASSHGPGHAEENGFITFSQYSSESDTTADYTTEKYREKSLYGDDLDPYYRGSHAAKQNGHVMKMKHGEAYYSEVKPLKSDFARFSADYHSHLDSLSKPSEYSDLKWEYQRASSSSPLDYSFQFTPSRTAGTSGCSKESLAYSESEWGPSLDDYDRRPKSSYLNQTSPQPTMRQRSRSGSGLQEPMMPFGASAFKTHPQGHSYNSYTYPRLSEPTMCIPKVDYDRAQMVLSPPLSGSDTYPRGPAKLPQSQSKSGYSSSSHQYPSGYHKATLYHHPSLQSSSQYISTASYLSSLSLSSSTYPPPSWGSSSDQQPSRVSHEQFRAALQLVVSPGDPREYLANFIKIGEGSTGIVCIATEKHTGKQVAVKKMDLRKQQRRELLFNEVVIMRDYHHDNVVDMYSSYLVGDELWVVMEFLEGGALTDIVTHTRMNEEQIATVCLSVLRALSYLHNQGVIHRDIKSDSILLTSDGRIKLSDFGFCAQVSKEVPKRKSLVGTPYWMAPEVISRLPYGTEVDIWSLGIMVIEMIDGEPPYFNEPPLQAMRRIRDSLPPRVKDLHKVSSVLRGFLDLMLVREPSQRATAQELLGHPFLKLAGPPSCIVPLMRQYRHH
The species entered for assay [20] is Rattus norvegicus. In words: Percentage AMPK activity remaining in the presence of 25uM inhibitor.
In assay [21] the target is Calcium/calmodulin-dependent protein kinase kinase 1 (Homo sapiens) (UniProt Q8N5S9). The assay can be described thus: Percentage CaMKKalpha activity remaining in the presence of 25uM inhibitor.
Sequence of Calcium/calmodulin-dependent protein kinase kinase 1 (Homo sapiens) (Q8N5S9 whole entry, looked up): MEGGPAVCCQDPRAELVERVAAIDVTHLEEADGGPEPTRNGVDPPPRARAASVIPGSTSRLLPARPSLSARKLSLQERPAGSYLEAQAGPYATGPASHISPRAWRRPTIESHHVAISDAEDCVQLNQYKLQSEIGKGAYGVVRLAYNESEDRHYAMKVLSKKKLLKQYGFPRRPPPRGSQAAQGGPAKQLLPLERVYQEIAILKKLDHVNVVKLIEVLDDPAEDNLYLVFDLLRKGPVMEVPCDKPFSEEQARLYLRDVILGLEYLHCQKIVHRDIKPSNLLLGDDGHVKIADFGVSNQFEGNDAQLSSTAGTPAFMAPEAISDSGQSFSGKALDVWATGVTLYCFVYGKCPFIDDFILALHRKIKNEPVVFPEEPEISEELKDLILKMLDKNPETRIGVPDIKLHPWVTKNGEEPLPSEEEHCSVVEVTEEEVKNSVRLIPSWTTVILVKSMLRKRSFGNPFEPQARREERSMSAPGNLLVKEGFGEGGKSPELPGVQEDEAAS
Assay [22] addresses Cyclin-dependent kinase 2/cyclin A (Homo sapiens) (UniProt P24941+P20248+P78396). The assay can be described thus: Percentage CDK2-cyclinA activity remaining in the presence of 25uM inhibitor. The format is protein-complex assay.
Assay [23] deals with Serine/threonine-protein kinase pim-2 (Homo sapiens, UniProt Q9P1W9). In words: Percentage PIM2 activity remaining in the presence of 25uM inhibitor.
Sequence of Serine/threonine-protein kinase pim-2 (Q9P1W9 whole entry, looked up): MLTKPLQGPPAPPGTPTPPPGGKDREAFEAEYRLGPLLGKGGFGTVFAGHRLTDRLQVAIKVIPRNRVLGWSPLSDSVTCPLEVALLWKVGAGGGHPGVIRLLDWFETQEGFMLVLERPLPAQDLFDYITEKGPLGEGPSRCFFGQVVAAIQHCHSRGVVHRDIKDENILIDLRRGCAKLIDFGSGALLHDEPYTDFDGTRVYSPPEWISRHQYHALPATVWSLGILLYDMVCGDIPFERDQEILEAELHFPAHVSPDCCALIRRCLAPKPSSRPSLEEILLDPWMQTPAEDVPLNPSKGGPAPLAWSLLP
Assay [24] deals with T3, Aurora kinase C (Homo sapiens) (UniProt Q9UQB9).
T3 sequence (whole entry): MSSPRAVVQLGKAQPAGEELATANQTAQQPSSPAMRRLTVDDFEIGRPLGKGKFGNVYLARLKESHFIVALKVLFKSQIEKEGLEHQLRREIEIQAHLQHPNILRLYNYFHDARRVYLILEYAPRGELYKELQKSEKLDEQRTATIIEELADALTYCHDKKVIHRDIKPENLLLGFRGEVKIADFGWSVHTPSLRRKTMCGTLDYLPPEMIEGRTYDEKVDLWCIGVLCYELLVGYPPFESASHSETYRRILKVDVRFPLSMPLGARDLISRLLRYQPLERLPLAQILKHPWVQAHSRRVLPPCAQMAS
The assay can be described thus: Percentage Aurora C activity remaining in the presence of 25uM inhibitor.

Assay [25] deals with Rho-associated protein kinase 2 (Homo sapiens) (UniProt O75116). In words: Percentage ROCK2 activity remaining in the presence of 25uM inhibitor.

Sequence of Dual specificity mitogen-activated protein kinase kinase 1 (Homo sapiens) (Q02750 whole entry): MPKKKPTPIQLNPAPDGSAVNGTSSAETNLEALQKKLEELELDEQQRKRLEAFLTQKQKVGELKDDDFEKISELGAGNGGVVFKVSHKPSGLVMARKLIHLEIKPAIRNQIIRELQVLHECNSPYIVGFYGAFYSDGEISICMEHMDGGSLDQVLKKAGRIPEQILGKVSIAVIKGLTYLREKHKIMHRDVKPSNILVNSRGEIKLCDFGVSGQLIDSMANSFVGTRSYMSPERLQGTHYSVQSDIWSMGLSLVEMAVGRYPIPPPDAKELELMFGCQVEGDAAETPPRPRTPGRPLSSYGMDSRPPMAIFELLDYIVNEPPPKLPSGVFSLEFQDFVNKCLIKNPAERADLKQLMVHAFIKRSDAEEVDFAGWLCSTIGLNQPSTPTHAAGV

As to `CC(C)[C@H](CO)Nc1nc(Nc2cccc(Cl)c2)c2ncn(C(C)C)c2n1` [PURVALANOLA], the IC50 in assay [1] is 30 nM (antagonist).
On to `Cc1ccc(-c2c(C(=O)CF)n(CCCO)c3ncnc(N)c23)cc1`, for which the figures for the Activity in [2], in [3] and in [5] were 85%, 88% and 90%, respectively. The results for the 50% inhibitory concentration (IC50) in assay [4] and in [6] were 560 nM (antagonist) and 750 nM (antagonist), respectively.
As for `O=C(NCCCNc1nc(Nc2cccc(NC(=O)N3CCCC3)c2)ncc1I)c1cccs1`, in assay [7], the Activity is 91%.
As for `COc1cc(OC)c(/C=C2/C(=O)Nc3ccccc32)c(OC)c1`, the Activity in [8] amounted to 84%; in assay [9], 76%; in assay [10], 89%; in assay [11], 92%; in assay [12], 79%; in assay [13], 70%. Further, the Activity in assay [14] stood at 88%; in assay [15] it was 97%; in assay [16], 86%; in assay [17] it was 95%; in assay [18], 74%; in assay [19] it was 84%. For the same molecule, the Activity is 71% in assay [20]; 67% in assay [21]; 83% in assay [22]; 75% in [23]; 94% in [24]; 78% in assay [25].
Regarding `CN[C@@H]1C[C@H]2O[C@@](C)([C@@H]1OC)n1c3ccccc3c3c4c(c5c6ccccc6n2c5c31)C(=O)N[C@H]4O` (stereo in doubt), the Activity in assay [7] came to 96%.
Take `NCCNS(=O)(=O)c1ccc(Cl)c2ccncc12`: the Activity was 88% in assay [8]; 78% in [9]; 46% in [10] (filed as antagonist); 103% in assay [11]; 26% in [12] (filed as antagonist); 84% in [13]. Further, the Activity in assay [14] (filed as antagonist) is 42%; in [15], 65%; in [16], 76%; in assay [17], 81%; in assay [18], 75%; in [19], 86%. For the same molecule, the Activity in [20] (filed as antagonist) was 29%; in [21], 86%; in [22] it was 62%; in assay [23], 55%; in assay [24], 95%; in [25], 65%.

One may read the IC50 as the midpoint of a concentration-inhibition curve.
